From publication PMC6013220, “Activation of TREK currents by riluzole in three subgroups of cultured mouse nodose ganglion neurons” (PLoS ONE, 2018)

Tests used:
[1] = target: T1, human TRESK (KCNK18) (Homo sapiens, UniProt Q7Z418); assay: whole-cell patch clamp, current at -40 mV; format: cell-based
T1 construct: full-length cDNA in pcDNA3.1, co-transfected with separate GFP cDNA in tsA201 cells
T1 sequence (Q7Z418 1-384): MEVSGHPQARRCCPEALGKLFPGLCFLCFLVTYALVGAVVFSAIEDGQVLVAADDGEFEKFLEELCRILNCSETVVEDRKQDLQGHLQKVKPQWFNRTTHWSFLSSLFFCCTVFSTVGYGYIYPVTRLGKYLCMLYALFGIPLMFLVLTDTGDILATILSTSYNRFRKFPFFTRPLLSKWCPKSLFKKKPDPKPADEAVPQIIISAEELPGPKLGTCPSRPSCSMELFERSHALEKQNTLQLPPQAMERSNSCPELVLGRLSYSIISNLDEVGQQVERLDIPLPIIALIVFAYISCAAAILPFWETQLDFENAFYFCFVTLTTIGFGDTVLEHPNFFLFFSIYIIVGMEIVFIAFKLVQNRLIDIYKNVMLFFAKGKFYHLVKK

[2] = test system: T2, TREK subfamily channels (TREK-1, TREK-2 and TRAAK); assay: whole-cell perforated patch clamp, outward current in native neurons; format: cell-based, Mus musculus; details: activator, unreliable (extrapolated), holding -30 mV, blocker cocktail, room temperature
T2 construct: gene Kcnk2; native channels in cultured nodose ganglion neurons; the authors argue mainly TREK-1, subtype not proven

`Nc1nc2ccc(OC(F)(F)F)cc2s1` [riluzole] gave an inhibition at 100 µM [1] of 64% and an EC50 [2] of 392.2 ± 182.8 µM.
